Measurements reported in publication PMC3961306, “Comparison of the Cancer Gene Targeting and Biochemical Selectivities of All Targeted Kinase Inhibitors Approved for Clinical Use” (PLoS ONE, 2014).
pIC50: −log10 of the molar value. Where two headings read alike, the source gives them in different places.

System: forty-four human cancer cell lines
Test: Cell proliferation assay (ATPlite, 72 hours) in the 44 cell line Oncolines panel
Type: cell-based
Conditions: for pIC50: Homo sapiens
[1] = 4-4 cell, read-out: cell panel IC50, J82
[2] = 4-4 cell, read-out: cell panel IC50, PA-1
[3] = 4-4 cell, read-out: cell panel IC50, SJCRH30
[4] = 4-4 cell, read-out: cell panel IC50, SR
[5] = 769-P, read-out: cell panel IC50, 769-P
[6] = 786-0, read-out: cell panel IC50, 786-0
[7] = A 172, read-out: cell panel IC50, A-172
[8] = A204, read-out: cell panel IC50, A-204
[9] = A498, read-out: cell panel IC50, A-498
[10] = A549, read-out: cell panel IC50, A-549
[11] = A-375, read-out: cell panel IC50, A375
[12] = A-427, read-out: cell panel IC50, A-427
[13] = ACHN, read-out: cell panel IC50, ACHN
[14] = AN3-CA, read-out: cell panel IC50, AN3 CA
[15] = AU565, read-out: cell panel IC50, AU-565
[16] = BT-20, read-out: cell panel IC50, BT-20
[17] = BT-549, read-out: cell panel IC50, BT-549
[18] = BXPC-3, read-out: cell panel IC50, BxPC-3
[19] = C-33-A, read-out: cell panel IC50, C-33 A
[20] = CAL-27, read-out: cell panel IC50, CAL 27
[21] = CCRF-CEM, read-out: cell panel IC50, CCRF-CEM
[22] = DLD-1, read-out: cell panel IC50, DLD-1
[23] = FaDu, read-out: cell panel IC50, FaDu
[24] = HCT-15, read-out: cell panel IC50, HCT-15
[25] = HCT-116, read-out: cell panel IC50, HCT-116
[26] = Hs-578T, read-out: cell panel IC50, Hs 578T
[27] = Jurkat E6.1, read-out: cell panel IC50, Jurkat E6.1
[28] = K562, read-out: cell panel IC50, K-562
[29] = LS174T, read-out: cell panel IC50, LS 174T
[30] = LoVo, read-out: cell panel IC50, LoVo
[31] = MG-63, read-out: cell panel IC50, MG-63
[32] = MOLT-4, read-out: cell panel IC50, MOLT-4
[33] = MeWo, read-out: cell panel IC50, MeWo
[34] = NCI-H82, read-out: cell panel IC50, NCI-H82
[35] = NCI-H460, read-out: cell panel IC50, NCI-H460
[36] = OVCAR-3, read-out: cell panel IC50, OVCAR-3
[37] = RPMI-7951, read-out: cell panel IC50, RPMI-7951
[38] = SHP77, read-out: cell panel IC50, SHP-77
[39] = SK-N-AS, read-out: cell panel IC50, SK-N-AS
[40] = SW48, read-out: cell panel IC50, SW48
[41] = SW480, read-out: cell panel IC50, SW480
[42] = SW-620, read-out: cell panel IC50, SW620
[43] = U2OS, read-out: cell panel IC50, U-2 OS
[44] = U-87 MG, 72 h, read-out: IC50 in cell proliferation assay (table S5 cellpanel data)

SMILES: CN(C)C/C=C/C(=O)Nc1cc2c(Nc3ccc(F)c(Cl)c3)ncnc2cc1O[C@H]1CCOC1 [afatinib]
- pIC50 [1]: 5.48
- pIC50 [2]: 5.72
- pIC50 [3]: 5.61
- pIC50 [4]: 6.01
- pIC50 [5]: 5.65
- pIC50 [6]: 5.56
- pIC50 [7]: 5.53
- pIC50 [8]: 5.65
- pIC50 [9]: 5.56
- pIC50 [10]: 5.50
- pIC50 [11]: 5.89
- pIC50 [12]: 5.54
- pIC50 [13]: 6.53
- pIC50 [14]: 5.56
- pIC50 [15]: 7.89
- pIC50 [16]: 5.36
- pIC50 [17]: 5.49
- pIC50 [18]: 5.43
- pIC50 [19]: 7.68
- pIC50 [20]: 6.36
- pIC50 [21]: 5.89
- pIC50 [22]: 5.77
- pIC50 [23]: 8.47
- pIC50 [24]: 5.81
- pIC50 [25]: 6.03
- pIC50 [26]: 5.47
- pIC50 [27]: 6.06
- pIC50 [28]: 5.49
- pIC50 [29]: 5.88
- pIC50 [30]: 5.68
- pIC50 [31]: 5.55
- pIC50 [32]: 6.04
- pIC50 [33]: 5.42
- pIC50 [34]: 5.65
- pIC50 [35]: 5.58
- pIC50 [36]: 5.68
- pIC50 [37]: 5.45
- pIC50 [38]: 5.44
- pIC50 [39]: 5.65
- pIC50 [40]: 5.38
- pIC50 [41]: 5.44
- pIC50 [42]: 5.47
- pIC50 [43]: 5.59
- pIC50 [44]: 5.30

SMILES: Cc1nc(Nc2ncc(C(=O)Nc3c(C)cccc3Cl)s2)cc(N2CCN(CCO)CC2)n1 [dasatinib]
- Difference between the average IC50 in the cell panel and the most potent IC50 (44 cell line panel, Figure 2D): more than 1000 fold
- pIC50 [1]: 5.60
- pIC50 [2]: 7.26
- pIC50 [3]: 5.89
- pIC50 [4]: 5.52
- pIC50 [5]: 7.26
- pIC50 [6]: 6.44
- pIC50 [7]: 7.00
- pIC50 [8]: 7.68
- pIC50 [9]: 6.17
- pIC50 [10]: 4.99
- pIC50 [11]: 6.29
- pIC50 [12]: 5.66
- pIC50 [13]: 7.32
- pIC50 [14]: 5.45
- pIC50 [15]: 5.15
- pIC50 [16]: 5.01
- pIC50 [17]: 6.84
- pIC50 [18]: 6.69
- pIC50 [19]: 8.05
- pIC50 [20]: 6.82
- pIC50 [21]: 5.14
- pIC50 [22]: 5.47
- pIC50 [23]: 6.35
- pIC50 [24]: 5.78
- pIC50 [25]: 4.85
- pIC50 [26]: 7.10
- pIC50 [27]: 5.62
- pIC50 [28]: 9.33
- pIC50 [29]: 5.46
- pIC50 [30]: 5.80
- pIC50 [31]: < 5.00
- pIC50 [32]: 6.06
- pIC50 [33]: 4.77
- pIC50 [34]: 4.99
- pIC50 [35]: 4.72
- pIC50 [36]: 6.92
- pIC50 [37]: 7.47
- pIC50 [38]: < 4.50
- pIC50 [39]: 6.20
- pIC50 [40]: < 4.50
- pIC50 [41]: 5.68
- pIC50 [42]: 4.91
- pIC50 [43]: 5.49
- pIC50 [44]: 4.83
